Experimental data taken from patent US20260151398A1, “COMPOUNDS FOR REDUCING CHOLESTEROL AND TREATING LIVER AND KIDNEY DISEASE” (McMaster University, priority 2021, published 2026).
“Also recorded” adds a separate entry of the source.

Legend:
[1] = test system: GRP78 and SREBP2; assay: Co-immunoprecipitation of GRP78 with SREBP2 in HuH7 cells; assay type: cell-based, human; details: TG 100 nM, CDN 100 μM, CF 200 μM, 24 h
Procedure: Cells were grown in 10 cm dishes were resuspended in ice cold non-denaturing immunoprecipitation buffer containing 20 mM tris HCL, 137 mM NaCl, 1% NP-40, 2 mM EDTA and protease inhibitor (Roche). Total cell protein was normalized using a protein assay (BioRad) and 1 mg of protein from each sample was incubated with 2 μg of capture antibody targeted against GRP78 (Santa Cruz Biotechnology; SC-1050) and rotated on a platform for 24 h at 4° C. Following incubation, samples were exposed to 100 μl of Protein G magnetic Surebeads® (BioRad) for an additional 2 h on a rotating platform at 4° C. Beads conjugated to the anti-GRP78 antibody were subsequently isolated and the remaining sample was collected and labelled “input” for use as controls. The magnetic beads underwent 4 consecutive washes using the non-denaturing IP buffer and resuspended and boiled in 100 μl of 4× SDS-PAGE sample buffer.
To determine whether increasing ER Ca^2+ levels enhance GRP78 peptide binding capacity, HuH7 cells were treated with either CDN, which increases ER Ca^2+ levels, or TG which causes ER Ca^2+ depletion. Following treatment, the interaction taking place between GRP78 and SREBP2 was examined via immunoprecipitation of the former. By affecting ER Ca^2+ levels however, these agents also directly impact the expression and abundance of GRP78 compared to untreated cells. Therefore, assessment of the relative binding capacity GRP78 for SREBP2 between treatments required normalization of immunoprecipitations to equivalent GRP78 protein levels (FIG. 7 A).

[2] = test system: C57BL/6J mice; assay: Mouse studies: circulating PCSK9, triglycerides, ApoB and hepatic markers; assay type: in vivo
Procedure: Liver tissues were fixed in formaldehyde and subsequently embedded in paraffin for sectioning. […] Slides were then exposed to biotin-conjugated secondary antibodies for 45 minutes and then streptavidin peroxidase for 10 minutes. Staining was visualized using the Nova Red HRP Substrate (Vector Laboratories).
Mouse PCSK9 was measured using the Quantikinine® ELISA kit (#MCP900, R&D Systems) and human PCSK9 using the PCSK9 Quantikinine® ELISA kit (#DCP900, R&D Systems). Serum ApoB levels were also quantified using ELISAs (#DAPB00, R&D Systems). Serum samples were diluted as per manufacturer's instructions.
All animal studies were carried out in 8 h-fasted male wild-type, Pcsk9^−/− or Ampkβ1^−/− mice on the C57BL/6J background. CF (25-100 mg/kg-8 h) and CDN (50 mg/kg) treatments were administered via intraperitoneal injection unless specified otherwise. Primary mouse hepatocytes were isolated using a two-step process with EGTA ([…] in HEPES buffer, Sigma Aldrich) and collagenase (0.05% in HEPES buffer, Sigma Aldrich) in 12-week-old male mice on the C57BL/6J background. Cells were then washed, centrifuged, and plated following isolation in cell strainers. Hepatosure® 100-donor pooled primary human hepatocytes were purchased from Xenotech. Primary hepatocytes were regularly grown in William's E medium (Gibco, Thermo Fisher Scientific) containing 10% fetal bovine serum, 100 IU/ml penicillin, and 100 µg/ml streptomycin.
Next, the effect of CF on PCSK9 expression/secretion and ER stress marker expression was assessed in mice. […] Immunohistochemical staining intensities were quantified using ImageJ Software (FIG. 9 E).

[3] = test system: calnexin; assay: Calnexin protein expression in HuH7 cells (immunoblot); assay type: cell-based, human
Procedure: Cells were washed in phosphate-buffered saline (PBS), lysed in 4× SDS-PAGE lysis buffer and separated on 7-10% polyacrylamide gels in denaturing conditions. Gels were transferred to nitrocellulose membranes using the BioRad mini trans-blot system, blocked in 5% skim milk in tris-buffered saline (TBS) for 1 h and incubated in primary antibody overnight for 16 h at 4° C. Membranes were then exposed to horse radish peroxidase conjugated secondary antibodies and visualized using EZ-ECL chemiluminescent reagent (Froggabio). Band intensities were quantified using ImageJ software ([…]) against membranes reprobed for housekeeping proteins.
Among the many intracellular effects of CF on the cell, its ability to increase intracellular Ca^2+ levels is well-studied (Echeverri, D., et al., 2010). […] ER Ca^2+ levels were then examined in cells transfected with D1ER; a genetically-encoded ER-resident fluorescence resonance energy transfer (FRET)-based […] chameleon Ca^2+ sensor, which increases in fluorescence intensity upon Ca^2+ binding (Palmer, A. E., et al., 2004). The low-affinity Ca^2+ indicator, Mag-Fluo-4, was also utilized for the direct assessment of ER Ca^2+ and increases in fluorescence intensity upon Ca^2+ binding (Diercks, B. P., et al., 2017; Lebeau, P., et al., 2021). […] ER Ca^2+ content was also assessed indirectly with the high affinity Ca^2+ dye, fura-2-AM (FIG. 6 B). […]

[4] = test system: total secreted protein; assay: Coomassie stain of medium for total secreted protein; assay type: cell-based; details: Coomassie stain of medium of CF-treated cells
Procedure: Cultured immortalized hepatocytes known to express and secrete PCSK9 (Lebeau, P., et al., 2017), including HuH7 and HepG2 cells, as well as primary mouse- and human-hepatocytes (PMH and PHH, respectively), were treated with CF for 24 h and assessed for PCSK9 expression via immunoblots and real-time PCR (FIG. 1 A to D). […] Given that sterol deprivation represents another well-established promoter of SREBP2 activation (Lebeau, P., et al., 2017), cells were also treated with CF in the presence and absence of U18666A (U18) that depletes intracellular sterols. […] Next, HepG2 cells were treated with an increasing dose of CF.

[5] = test system: HepG2 cells; assay: DiI-LDL uptake assay in HepG2 cells; assay type: cell-based, human
Procedure: During the last 5 h of treatment (h 19 to 24) cells were exposed to DiI-LDL (10 μg/ml) and then washed with two changes of pre-warmed (37° C.) HBSS containing 20 mM HEPES prior to analysis.
The uptake and accumulation of DiI-LDL was then quantified using a fluorescent spectrophotometer (Molecular Devices). […] Live-cell staining of the LDLR was also performed in HepG2 cells exposed to DiI-LDL (FIG. 11 D).

[6] = 18-week-old C57BL/6J mice, CF 30 mg/kg every 24 hours for 14 days

Structure (SMILES) | interaction of GRP78 with pre-mature SREBP2 [1] | hepatic LDLR expression (CDN) ([2]; mice, 50 mg/kg, IP, 8 h) | calnexin protein expression [3] | global protein secretion [4] | LDLc (DiI-LDL) uptake ([5]; HepG2, 24 h treatment, DiI-LDL 5 h) | LDLc uptake in PCSK9 shRNA cells ([5]; HepG2 stably transfected with PCSK9 shRNA, CF 200 μM) | serum Apolipoprotein B (ApoB) [2, 6] | serum PCSK9 after daily dosing [2, 6] | circulating PCSK9 levels after oral gavage ([2]; mice, CF 20 mg/kg oral gavage, listed as CF) | circulating PCSK9 levels ([2]; mice, CF 50 mg/kg IP, 8 h) | circulating triglyceride levels ([2]; mice, CF 50 mg/kg IP, 8 h) | time required to significantly reduce plasma PCSK9 ([2]; mice, time-course) | hepatic expression of UPR markers / chaperones ([2]; mouse liver, CF 50 mg/kg, 8 h, listed as CF)
Cc1ccc2cccc(NC(=O)c3ccc(OC(C)C)cc3)c2n1 [CDN] | enhanced the ability of GRP78 to interact with and sequester pre-mature SREBP2 | increased hepatic LDLR expression | – | – | – | – | – | – | – | – | – | – | –
Cn1c(=O)c2c(ncn2C)n(C)c1=O [caffeine, 1,3,7-Trimethylxanthine] | increases the SREBP2-binding capacity of GRP78 | – | induced | not affecting global protein secretion | increased LDLc uptake | failed to significantly increase LDLc uptake | reduction | reduction | reduced circulating PCSK9 levels; also recorded: reduces plasma PCSK9 levels | significant reduction | significant reduction | 4 h | reduced the expression of UPR markers; also recorded: reduces chaperone expression
C/C=C(/C)C(=O)O[C@H]1C(C)=C2[C@H]([C@@H]1OC(=O)CCCCCCC)[C@@](C)(OC(C)=O)C[C@H](OC(=O)CCC)[C@@]1(O)[C@H]2OC(=O)[C@@]1(C)O [TG, thapsigargin] | lost its intrinsic ability to interact with pre-mature SREBP2 | – | blocked | – | – | – | – | – | – | – | – | – | –
